Test results as given in patent publication US20230390279A1, “COMPOSITION AND METHOD FOR TREATING CANCER” (NOVMETAPHARMA CO., LTD., priority 2022, published 2023).

How the values were obtained:
Assay type in all cases: cell-based
[1] = test system: A549 lung cancer cell line; experiment: MTT cell viability assay, TKI combination; conditions: Homo sapiens, bosutinib 12.5 μM, 24 hours, read-out: growth inhibition
Description: (§1) To evaluate anticancer effects of ERRγ compound, alone and in combination with TKIs, various cancer cells including A549, Panc-1, Sk-Hep-1, Huh-7, and SK-Hep-1 cells were cultured in DMEM containing 10% FBS and 1% antibiotics.
(§2) To initiate the assay, cells were seeded in 96-well plates at a density of 1×10^4 cells per well and incubated overnight in a 37° C. […] To serve as a control, an equal volume of DMSO was added. After 24 hours of incubation, the media was replaced with media containing 0.5 mg/ml of MTT and the plates were incubated for 1 hour. Then, the medium was removed and formazan crystals were dissolved in 100 μl of DMSO added to each well. A microplate reader was used to measure the absorbance at 570 nm, and cell viability was normalized to control. Statistical significance was calculated using Student's t-test, with significance levels set at **p<0.01, ***p<0.001, and ****p<0.0001.

[2] = test system: Panc1 pancreatic cancer cells; experiment: MTT cell viability assay, TKI combination; conditions: Homo sapiens, PANC-1, ceritinib 2.5 μM, 24 hours, read-out: growth inhibition
Description: as §1, §2

[3] = test system: SK-Hep-1 liver cancer cells; experiment: MTT cell viability assay, TKI combination; conditions: Homo sapiens, SK-HEP1, lenvatinib 15 μM, 24 hours, read-out: growth inhibition
Description: as §1, §2

Huh-7 liver cancer cells = experiment: MTT cell viability assay, TKI combination; conditions: Homo sapiens, lenvatinib 1.3 μM, 24 hours, read-out: growth inhibition
Description: as §1, §2

[4] = test system: SKOV-3 ovarian cancer cells; experiment: MTT cell viability assay, TKI combination; conditions: Homo sapiens, SK-OV-3, ruxolitinib 30 μM, 24 hours, read-out: growth inhibition
[5] = test system: sorafenib-resistant liver cancer cell line SK-Hep-R; experiment: Cell proliferation, trypan blue cell count with hemocytometer; conditions: sorafenib alone, FIG. 4B
[6] = test system: sorafenib-resistant liver cancer cell line Huh7-SR; experiment: Cell death by FACS (annexin/PI) and cleaved caspase-3; conditions: Huh7-SR cells; FIGS. 1A to 1C
Description: (§3) To evaluate the cancer cell death by FACS, first, a cancer cell line was incubated in FITC-bound annexin and propidium iodide (PI) for 15 minutes, and annexin and PI binding were then measured by flow cytometry to acquire data using a BD Accuri C6 flow cytometer (BD Biosciences) and analyzed with the ACCURI™ C6 analysis program (BD Biosciences)/FlowJo software (FlowJo, LLC.). Cancer cell line death was evaluated using a cleaved caspase-3 antibody (Cell Signaling Technology).

[7] = test system: sorafenib-resistant liver cancer cell line SK-Hep-R; experiment: as above; conditions: SK-Hep-R cells; FIGS. 1A to 1C
Description: as §3

[8] = test system: sorafenib-resistant liver cancer cell line Huh7-R; experiment: Cell proliferation, trypan blue cell count with hemocytometer; conditions: sorafenib alone, FIG. 4A

For `COc1cc(Nc2c(C#N)cnc3cc(OCCCN4CCN(C)CC4)c(OC)cc23)c(Cl)cc1Cl` [bosutinib], the inhibition at 12.5 µM [1] was 16.3%.
`Cc1cc(Nc2ncc(Cl)c(Nc3ccccc3S(=O)(=O)C(C)C)n2)c(OC(C)C)cc1C1CCNCC1` [ceritinib] gave an inhibition at 2.5 µM [2] of 17%.
`COc1cc2nccc(Oc3ccc(NC(=O)NC4CC4)c(Cl)c3)c2cc1C(N)=O` [lenvatinib] gave an inhibition at 15 µM [3] of 16.7% and an inhibition at 1.3 µM (Huh-7 liver cancer cells) of 16.7%.
`N#CC[C@H](C1CCCC1)n1cc(-c2ncnc3[nH]ccc23)cn1` [ruxolitinib] was tested, and the inhibition at 30 µM [4] was 8.8%.
`CNC(=O)c1cc(Oc2ccc(NC(=O)Nc3ccc(Cl)c(C(F)(F)F)c3)cc2)ccn1` [sorafenib] was tested, and the cell proliferation [5] was “not affected”, the “cell death by sorafenib” value [6] was “did not increase” and the “cell death by sorafenib” value [7] was “did not increase”. For the same molecule, the cell proliferation [8] was “not affected”.
